# According to patent publication US9051317B2, “Azaindoles as respiratory syncytial virus antiviral agents” (JANSSEN SCIENCES IRELAND UC, priority 2010, dated 2015):
# Tests used:
# [1] = Cytotoxicity in HeLa cells, ATP content (ATPlite kit); type: cell-based; conditions: human, Table 1, three days incubation, read-out: Toxicity CC50
# Procedure: (§1) Black 96-well clear-bottom microtiter plates (Corning, Amsterdam, The Netherlands) were filled in duplicate using a customized robot system with serial 4-fold dilutions of compound in a final volume of 50 μl culture medium [RPMI medium without phenol red, 10% FBS, 0.04% gentamycin (50 mg/mL) and 0.5% DMSO]. Then, 100 μl of a HeLa cell suspension (5×10^4 cells/mL) in culture medium was added to each well followed by the addition of 50 μl rgRSV224 (MOI=0.02) virus in culture medium using a multidrop dispenser (Thermo Scientific, Erembodegem, Belgium). rgRSV224 virus is an engineered virus that includes an additional GFP gene (Hallak et al, 2000) and was in-licensed from the NIH (Bethesda, Md., USA). Medium, virus- and mock-infected controls were included in each test. Cells were incubated at 37° C. in a 5% CO2 atmosphere. Three days post-virus exposure, viral replication was quantified by measuring GFP expression in the cells by a MSM laser microscope (Tibotec, Beerse, Belgium). The EC50 was defined as the 50% inhibitory concentration for GFP expression. In parallel, compounds were incubated for three days in a set of white 96-well microtitier plates (Corning) and the cytotoxicity of compounds in HeLa cells was determined by measuring the ATP content of the cells using the ATPlite kit (PerkinElmer, Zaventem, Belgium) according to the manufacturer's instructions. The CC50 was defined as the 50% concentration for cytotoxicity.
# rgRSV224 virus = test: microbe, parasite or virus in culture; type: cell-based, respiratory syncytial virus (RSV); conditions: human respiratory syncytial virus, HeLa, 72 h, read-out: WT activity EC50
# Procedure: as §1
compound,measurement,setting,value
"CC(C)CCn1c(Cn2c(=O)n(C3CC3)c3ccncc32)cc2cccnc21 [Compound P10, 1-Cyclopropyl-3-{[1-(3-methylbutyl)-1H-pyrrolo[2,3-b]pyridin-2-yl]methyl}-1,3-dihydro-2H-imidazo[4,5-c]pyridin-2-one]",CC50 at 3 days,[1],> 98.4 µM
same,EC50,rgRSV224 virus,> 98.4 µM
